Test results reported in paper PMC6707612, “Cyclic-di-GMP binds to histidine kinase RavS to control RavS-RavR phosphotransfer and regulates the bacterial lifestyle transition between virulence and swimming” (PLoS Pathogens, 2019).
pKd: −log10 of the molar value. Several values for one entry are separate records, joined by “and”; a condition that tells them apart may be missing. Identical values can stand only once.

Tests used:
[1] = tested on: DHp-CA^S636A, DHp-CA^D638A and DHp-CA^L652A; experiment: microscale thermophoresis (MST) binding, Ala-substituted DHp-CA proteins; design: species or system Xanthomonas campestris pv. campestris; conditions: compared with positive control DHp-CA protein; fl-c-di-GMP used in the MST assay
Experimental: (§1) Fig 6 Arg^656 in the CA domain of RavS is a key residue for c-di-GMP binding. (a, b) c-di-GMP binds to the DHp-CA domain of RavS. PAS-A, PAS-B and DHp-CA in (a), and DHp and CA domains of RavS in (b), were purified and the interaction with c-di-GMP was measured by MST. Each assay was repeated three times. Standard deviations are shown. (c) Molecular docking model of the interaction between c-di-GMP and DHp-CA of RavS. c-di-GMP is shown as a ball-and-stick model and DHp-CA is shown in ribbon representation. (d) Schematic view of the predicted docking site between c-di-GMP and DHp-CA. Potential hydrogen bonds are indicated as blue dashed lines. Autodock software was used to predict the interaction. […] Ten recombinant proteins of the DHp-CA region, each containing a substitution of a putative essential residue involved in c-di-GMP binding, were used in the MST assay to quantify the Kd value of RavS–c-di-GMP binding. fl-c-di-GMP was used in the MST assay. […] The reactions were terminated with 5× SDS loading buffer and the products were separated by 12% SDS-PAGE, exposed to a phosphor screen and analysed by Typhoon FLA7000. […]
(§2) The interaction between c-di-GMP nucleotides and various proteins was measured by using MST with a fluorescein-labelled c-di-GMP (2′-Fluo-AHC-c-di-GMP, abbreviated as fl-c-di-GMP; 2′-Fluo-AHC-c-di-AMP, fl-c-di-AMP; 2′-Fluo-AHC-cGMP, fl-cGMP; Biolog, Germany). […]

[2] = tested on: DHpCA^D637A, DHp-CA^G639A, DHp-CA^D640A, DHp-CA^I653A, DHp-CA^E657A and DHp-CA^L666A; experiment: as above; design: species or system Xanthomonas campestris pv. campestris; conditions: compared with DHp-CA protein; fl-c-di-GMP used in the MST assay
Experimental: as §1, §2

PizD = target: PizD; design: method as in PMID 26055114; conditions: lower end of reported range; cited from earlier work
STING = target: STING; design: method as in PMID 26055114; conditions: upper end of reported range; cited from earlier work
RavA = RavA (Xanthomonas campestris pv. campestris, UniProt Q8P9A8); experiment: microscale thermophoresis (MST) binding; conditions: 20 nM fluorescein-labelled nucleotide, read-out: dissociation constant (Kd)
Sequence of RavA (Q8P9A8 entry or part of it): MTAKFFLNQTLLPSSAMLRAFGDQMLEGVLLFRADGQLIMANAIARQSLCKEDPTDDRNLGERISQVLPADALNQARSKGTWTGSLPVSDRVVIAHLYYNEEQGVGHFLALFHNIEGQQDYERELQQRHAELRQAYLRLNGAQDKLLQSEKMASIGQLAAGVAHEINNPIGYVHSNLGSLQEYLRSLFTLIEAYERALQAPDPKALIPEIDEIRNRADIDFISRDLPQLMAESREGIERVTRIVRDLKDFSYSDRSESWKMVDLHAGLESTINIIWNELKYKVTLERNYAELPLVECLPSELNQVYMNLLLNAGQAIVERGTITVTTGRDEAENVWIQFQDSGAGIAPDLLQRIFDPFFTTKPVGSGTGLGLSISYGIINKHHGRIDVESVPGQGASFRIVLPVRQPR
Experimental: (§3) The interaction between c-di-GMP nucleotides and various proteins was measured by using MST with a fluorescein-labelled c-di-GMP (2′-Fluo-AHC-c-di-GMP, abbreviated as fl-c-di-GMP; 2′-Fluo-AHC-c-di-AMP, fl-c-di-AMP; 2′-Fluo-AHC-cGMP, fl-cGMP; Biolog, Germany). These chemicals contain carboxyfluorescein that has excitation and emission wavelengths of 497 nm and 520 nm, respectively, which can be detected directly by a MST instrument. The experiments were performed on a Monolith NT.115 device using standard treated capillaries (NanoTemper Technologies, Germany). The concentration of the particular protein varied from 0.036 to 150 μM with a 2-fold gradient and the concentration of fl-c-di-GMP was constant at 20 nM. Fluorescence intensity due to thermophoresis was recorded using the blue channel optics of the instrument (λex = 470 ± 15 nm, λem = 520 ± 10 nm) during a 30 s period of infrared laser heating at 80% of the maximum laser power, followed by a 5 s cooling period. Measurements were performed in buffer containing 20 mM HEPES, pH 7.5, 150 mM NaCl, 2 mM MgCl2, 2 mM DTT and 0.05% Tween 20. […]
(§4) Supplementary file ppat.1007952.s007.pdf: S7 Fig c-di-GMP specifically binds to RavS to enhance the RavS-RavR phosphotransfer. […] The interactions of RavS^ΔN, RavA, VgrS and RavR^ΔEAL with fl-c-di-GMP were measured by microscale thermophoresis (MST). Twenty nanomolar fluorescein-labelled nucleotides and increasing concentrations of proteins were co-incubated and potential interactions were measured by MST. The dissociation constant (Kd) was determined to estimate the binding affinity. […]
(§5) (b) RavSΔN specifically interacts with fl-c-di-GMP. The interactions of RavSΔN, RavA, VgrS and RavRΔEAL with fl-c-di-GMP were measured by microscale thermophoresis (MST). Twenty nanomolar fluorescein-labelled nucleotide and increasing concentrations of proteins were co-incubated and potential interactions were measured by MST.
(§6) The dissociation constant (Kd) was determined to estimate the binding affinity. […]

VgrS = VgrS (Xanthomonas campestris pv. campestris, UniProt Q8P666); experiment: microscale thermophoresis (MST) binding; conditions: 20 nM fluorescein-labelled nucleotide, read-out: dissociation constant (Kd)
Sequence of VgrS (Q8P666 entry or part of it): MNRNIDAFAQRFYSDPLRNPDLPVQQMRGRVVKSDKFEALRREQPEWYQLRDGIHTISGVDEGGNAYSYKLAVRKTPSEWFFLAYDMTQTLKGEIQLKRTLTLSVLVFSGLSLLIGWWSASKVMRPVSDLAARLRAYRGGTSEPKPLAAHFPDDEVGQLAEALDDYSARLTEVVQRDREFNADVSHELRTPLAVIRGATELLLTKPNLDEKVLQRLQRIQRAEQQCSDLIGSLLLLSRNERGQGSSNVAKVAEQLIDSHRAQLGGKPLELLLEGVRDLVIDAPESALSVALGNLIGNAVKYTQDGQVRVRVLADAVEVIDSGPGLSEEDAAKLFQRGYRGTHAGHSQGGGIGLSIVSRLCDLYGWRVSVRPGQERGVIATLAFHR
Experimental: as §3, §4, §5, §6

DHp domain of RavS = experiment: microscale thermophoresis (MST) binding; design: species or system Xanthomonas campestris pv. campestris; conditions: DHp region
Experimental: (§7) Fig 6 Arg^656 in the CA domain of RavS is a key residue for c-di-GMP binding. (a, b) c-di-GMP binds to the DHp-CA domain of RavS. PAS-A, PAS-B and DHp-CA in (a), and DHp and CA domains of RavS in (b), were purified and the interaction with c-di-GMP was measured by MST. Each assay was repeated three times. Standard deviations are shown. (c) Molecular docking model of the interaction between c-di-GMP and DHp-CA of RavS. c-di-GMP is shown as a ball-and-stick model and DHp-CA is shown in ribbon representation. (d) Schematic view of the predicted docking site between c-di-GMP and DHp-CA. Potential hydrogen bonds are indicated as blue dashed lines. Autodock software was used to predict the interaction. (e) Effect of amino acid substitutions on RavS–c-di-GMP binding. Ten recombinant proteins of the DHp-CA region, each containing a substitution of a putative essential residue involved in c-di-GMP binding, were used in the MST assay to quantify the Kd value of RavS–c-di-GMP binding. fl-c-di-GMP was used in the MST assay. Each experiment was repeated three times. […] The reactions were terminated with 5× SDS loading buffer and the products were separated by 12% SDS-PAGE, exposed to a phosphor screen and analysed by Typhoon FLA7000. […]
(§8) The interaction between c-di-GMP nucleotides and various proteins was measured by using MST with a fluorescein-labelled c-di-GMP (2′-Fluo-AHC-c-di-GMP, abbreviated as fl-c-di-GMP; 2′-Fluo-AHC-c-di-AMP, fl-c-di-AMP; 2′-Fluo-AHC-cGMP, fl-cGMP; Biolog, Germany). These chemicals contain carboxyfluorescein that has excitation and emission wavelengths of 497 nm and 520 nm, respectively, which can be detected directly by a MST instrument. […] Fluorescence intensity due to thermophoresis was recorded using the blue channel optics of the instrument (λex = 470 ± 15 nm, λem = 520 ± 10 nm) during a 30 s period of infrared laser heating at 80% of the maximum laser power, followed by a 5 s cooling period. […]

PAS-A of RavS = experiment: microscale thermophoresis (MST) binding; design: species or system Xanthomonas campestris pv. campestris; conditions: PAS-A region
Experimental: as §7, §8

PAS-B of RavS = experiment: microscale thermophoresis (MST) binding; design: species or system Xanthomonas campestris pv. campestris; conditions: PAS-B region
Experimental: as §7, §8

Compound	fold increases in Kd values [1]	change in c-di-GMP binding affinity [2]	pKd (PizD)	pKd (STING)	pKd (RavA)	pKd (VgrS)	binding (MST) (DHp domain of RavS)	binding (MST) (PAS-A of RavS)	binding (MST) (PAS-B of RavS)
Nc1nc2c(ncn2[C@@H]2O[C@@H]3COP(=O)(O)O[C@H]4[C@@H](O)[C@H](n5cnc6c(=O)[nH]c(N)nc65)O[C@@H]4COP(=O)(O)O[C@H]3[C@H]2O)c(=O)[nH]1 [c-di-GMP, Cyclic di-GMP]	1–2 fold	no significant change	7.00	4.84	–	–	–	–	–
Nc1nc2c(ncn2[C@@H]2O[C@@H]3COP(=O)(O)O[C@H]4[C@@H](OC(=O)NCCCCCCNC(=O)c5ccc6c(c5)C(=O)OC65c6ccc(O)cc6Oc6cc(O)ccc65)[C@H](n5cnc6c(=O)[nH]c(N)nc65)O[C@@H]4COP(=O)(O)O[C@H]3[C@H]2O)c(=O)[nH]1 [fl-c-di-GMP, 2′-Fluo-AHC-c-di-GMP]	–	–	–	–	3.94 and < 4.10	4.06 and < 4.10	no binding	no binding	no binding
